Several values for one entry are separate records, joined by “and”; a condition that tells them apart may be missing. Equal values may be shown once.

With `COCC(O)CN(c1cc(OC)cc(OC)c1)c1ccc2ncc(-c3cnn(C)c3)nc2c1` (stereo not drawn) [Compound 397], the melting point was found to be 132.82 °C.

Regarding `CCOc1cc(F)cc(N(CCO)c2ccc3ncc(-c4cnn(C)c4)nc3c2)c1` [Compound 401], the melting point was found to be 138 °C.

As to `COc1cc(OC)cc(N(CCN2CCC(F)(F)CC2)c2ccc3ncc(-c4cnn(C)c4)nc3c2)c1` [Compound 431], the melting point is 147.77 °C.

Compound `[2H]C([2H])([2H])Oc1cc(OC)cc(N(CCNC(C)C)c2ccc3ncc(-c4cn[nH]c4)nc3c2)c1` [Compound 432] returned a melting point of 251.77 °C.

`COc1ccc(OC)c(N(CCN)c2ccc3ncc(-c4cn[nH]c4)nc3c2)c1` [Compound 438] displayed a melting point of 140.67 °C.

With `COc1cc(OC)cc(N(CCCn2cccn2)c2ccc3ncc(-c4cnn(C)c4)nc3c2)c1` [Compound 448], the melting point was found to be 80 °C.

Consider `COc1cc(OC)cc(N(CCN2CCC(N(C)C)C2)c2ccc3ncc(-c4cnn(C)c4)nc3c2)c1` (stereo not drawn) [Compound 456], for which the melting point came out at 143.58 °C.

`COc1cc(OC)cc(N(CCCN2CCC(F)(F)C2)c2ccc3ncc(-c4cnn(CC5CCOCC5)c4)nc3c2)c1` [Compound 459] returned a melting point of 99.32 °C.

As for `CCOc1cc(F)cc(N(CCN)c2ccc3ncc(-c4cnn(C)c4)nc3c2)c1` [Compound 478], the melting point stood at 70 °C.

With `COc1cc(F)cc(N(CCN)c2ccc3ncc(-c4cnn(C)c4)nc3c2)c1` [Compound 488], the melting point worked out at 96.65 °C.

Compound `CNCCN(c1cc(F)cc(OC)c1)c1ccc2ncc(-c3cnn(C)c3)nc2c1` [Compound 510] came in with a melting point of 70 °C.

The compound `COc1cc(OC)cc(N(CCNCC(F)F)c2ccc3ncc(-c4cnn(C)c4)nc3c2)c1` [Compound 513] showed a melting point of 160.65 °C.

For `COc1cc(OC)cc(N(C[C@@H](O)CN2CC[C@H](C#N)C2)c2ccc3ncc(-c4cnn(C)c4)nc3c2)c1` [Compound 526], the melting point turned out to be 234.8 °C.

`COc1cc(OC)cc(N(CCN2CCN(CCO)CC2)c2ccc3ncc(-c4cnn(C)c4)nc3c2)c1` [Compound 528] registered a melting point of 110.16 °C.

The compound `COc1cc(OC)cc(N(CC(O)CN2CCOCC2)c2ccc3ncc(-c4cnn(C)c4)nc3c2)c1` (stereo not drawn) [Compound 540] showed a melting point of 130.63 °C.

In the case of `COc1cc(F)cc(N(CCCO)c2ccc3ncc(-c4cnn(C)c4)nc3c2)c1` [Compound 565], the melting point came to 152 °C.

With `COc1cc(OC)cc(N(Cc2cccnc2)c2ccc3ncc(-c4cnn(C)c4)nc3c2)c1` [Compound 568], the melting point turned out to be 164.5 °C.

As for `COc1cc(OC)cc(N(Cc2ccncc2)c2ccc3ncc(-c4cnn(C)c4)nc3c2)c1` [Compound 569], the melting point turned out to be 139 °C.

The compound `COc1cc(OC)cc(N(CCN2CCN(C3CCN(C(C)=O)CC3)CC2)c2ccc3ncc(-c4cnn(C)c4)nc3c2)c1` [Compound 583] registered a melting point of 136.49 °C.

Consider `COc1cc(OC)cc(N(CCCN2CCC(F)(F)C2)c2ccc3ncc(-c4cnn(C)c4)nc3c2)c1` [Compound 602], for which the melting point turned out to be 158.84 °C.

`CNC(=O)Cn1cc(-c2cnc3ccc(N(CCCNC(C)C)c4cc(OC)cc(OC)c4)cc3n2)cn1` [Compound 615] came in with a melting point of 134 °C.

For `COc1cc(OC)cc(N(CCC(=O)N(C)OC)c2ccc3ncc(-c4cnn(C)c4)nc3c2)c1` [Compound 633], the melting point came to 130 °C.

With `COc1cc(OC)cc(N(CCCc2cc(C)ccn2)c2ccc3ncc(-c4cnn(C)c4)nc3c2)c1` [Compound 635], the melting point was 110 °C and 111 °C.

In turn, `COc1cc(OC)cc(N(CCCNCC(N)=O)c2ccc3ncc(-c4cnn(C)c4)nc3c2)c1` [Compound 641] showed a melting point of 155 °C.

Regarding `COc1cc(OC)cc(N(CCNC(C)C)c2ccc3ncc(-c4cnn(CCC#N)c4)nc3c2)c1` [Compound 642], the melting point was 127 °C.

With `COc1cc(OC)cc(N(CC#Cc2ncccc2OC)c2ccc3ncc(-c4cnn(C)c4)nc3c2)c1` [Compound 652, N-(3,5-Dimethoxyphenyl)-N-[3-(3-methoxypyridin-2-yl)prop-2-yn-1-yl]-3-(1-methyl-1H-pyrazol-4-yl)quinoxalin-6-amine], the melting point was 144 °C and 142 °C.

Turning to `COc1cc(OC)cc(N(CCN(Cc2ccc(N)cc2)C(C)C)c2ccc3ncc(-c4cnn(C)c4)nc3c2)c1` [Compound 658], the melting point was found to be 152 °C.

The compound `COc1cc(OC)cc(N(C[C@@H](O)C(F)(F)F)c2ccc3ncc(-c4cnn(CCCN)c4)nc3c2)c1` [Compound 660, 3-[{3-[1-(3-Aminopropyl)-1H-pyrazol-4-yl]quinoxalin-6-yl}(3,5-dimethoxyphenyl)amino]-1,1,1-trifluoropropan-2-ol] displayed a melting point of 151 °C.

As to `COc1cc(OC)cc(N(CCCc2nccc(O)n2)c2ccc3ncc(-c4cnn(C)c4)nc3c2)c1` [Compound 663], the melting point was determined as 200 °C.

The compound `COc1cc(OC)cc(N(CCCNCC(F)F)c2ccc3ncc(-c4cnn(C)c4)nc3c2)c1` [Compound 717] yielded a melting point of 125 °C.

Turning to `COc1cccnc1C#CCN(c1ccc2ncc(-c3cnn(C)c3)nc2c1)c1c(Cl)c(OC)cc(OC)c1Cl` [Compound 785], the melting point came to 190 °C.

In turn, `COc1cc(OC)cc(N(c2ccc3ncc(-c4cnn(C)c4)nc3c2)C(C)(C)C#Cc2nccc(OC)n2)c1` [Compound 806] showed a melting point of 182 °C.

`COc1cc(OC)cc(N(Cc2ncccn2)c2ccc3ncc(-c4cnn(C)c4)nc3c2)c1` [Compound 812]: the melting point was determined as 170 °C.

Regarding `COc1cc(OC)cc(N(CC2CCN(c3nccc(OC)n3)CC2)c2ccc3ncc(-c4cnn(C)c4)nc3c2)c1` [Compound 839], the melting point stood at 126 °C.

For `Cn1cc(-c2cnc3ccc(N(CC4CC4)c4cccc(OC(F)(F)F)c4)cc3n2)cn1` [Compound 881], the melting point was 156.5 °C.

Take `CN(C)c1cccc(N(CC2CC2)c2ccc3ncc(-c4cnn(C)c4)nc3c2)c1` [Compound 883]: the melting point is 194 °C.

`COc1cc(OC)cc(N(CC#Cc2cc(OC)nc(OC)n2)c2ccc3ncc(-c4cnn(C)c4)nc3c2)c1` [Compound 913] returned a melting point of 170 °C.

`COc1cc(OC)cc(N(CC#CC2(O)CCN(C(=O)OC(C)(C)C)CC2)c2ccc3ncc(-c4cnn(C)c4)nc3c2)c1` [Compound 914]: the melting point was determined as 166 °C.

Consider `COc1cc(OC)cc(N(CCC#Cc2ccccc2)c2ccc3ncc(-c4cnn(C)c4)nc3c2)c1` [Compound 919], for which the melting point was 130 °C.

Source of the values: US9464071B2 (priority 2010, dated 2016).
